# Results reported in paper PMC8699473, “An Easily Expandable Multi-Drug LC-MS Assay for the Simultaneous Quantification of 57 Oral Antitumor Drugs in Human Plasma” (Cancers, 2021).
# Experiments:
# [1] = Short-term stability in spiked pooled human plasma (bench-top, 4 °C, 56 °C)
# [2] = Freeze-thaw stability in spiked pooled human plasma; type: physicochemical
# [3] = Long-term stability in spiked pooled human plasma
# [4] = Autosampler stability of ready for injection samples; type: physicochemical, human
# [5] = parameters: method as in supplement references [1-55] as printed per drug; conditions: minimum steady-state blood plasma concentration after multiple dose administration; ref supplement references [1-55] per drug; cited from earlier work
compound,measurement,setting,value
Cc1c(C(=O)Nc2ccc(N3C[C@@H](C)O[C@@H](C)C3)nc2)cccc1-c1ccc(OC(F)(F)F)cc1 [Sonidegib],"Short-time stability (1h, 56°C) Accuracy [%]",[1]; validation standard 2xLLOV,47.0%
same,"Short-time stability (24h, 4°C, without daylight) Accuracy [%]",[1]; validation standard 2xLLOV,99.1%
same,"Short-time stability (24h, RT, with daylight) Accuracy [%]",[1]; validation standard 2xLLOV,95.7%
same,"Short-time stability (24h, RT, without daylight) Accuracy [%]",[1]; validation standard 2xLLOV,91.1%
same,"Short-time stability (1h, 56°C) Accuracy [%]",[1]; validation standard LLOV,38.1%
same,"Short-time stability (24h, 4°C, without daylight) Accuracy [%]",[1]; validation standard LLOV,96.4%
same,"Short-time stability (24h, RT, with daylight) Accuracy [%]",[1]; validation standard LLOV,96.2%
same,"Short-time stability (24h, RT, without daylight) Accuracy [%]",[1]; validation standard LLOV,86.1%
same,"Short-time stability (1h, 56°C) Accuracy [%]",[1]; validation standard MOV,44.9%
same,"Short-time stability (24h, 4°C, without daylight) Accuracy [%]",[1]; validation standard MOV,98.4%
same,"Short-time stability (24h, RT, with daylight) Accuracy [%]",[1]; validation standard MOV,92.2%
same,"Short-time stability (24h, RT, without daylight) Accuracy [%]",[1]; validation standard MOV,94.7%
same,"Short-time stability (1h, 56°C) Accuracy [%]",[1]; validation standard ULOV,40.1%
same,"Short-time stability (24h, 4°C, without daylight) Accuracy [%]",[1]; validation standard ULOV,96.7%
same,"Short-time stability (24h, RT, with daylight) Accuracy [%]",[1]; validation standard ULOV,92.9%
same,"Short-time stability (24h, RT, without daylight) Accuracy [%]",[1]; validation standard ULOV,91.4%
same,Freeze-Thaw Accuracy [%],[2]; validation standard 2xLLOV,97.9%
same,Freeze-Thaw Accuracy [%],[2]; validation standard LLOV,103.7%
same,Freeze-Thaw Accuracy [%],[2]; validation standard MOV,96.5%
same,Freeze-Thaw Accuracy [%],[2]; validation standard ULOV,99.0%
same,"Long-term stability, 1 month, -20°C Accuracy [%]",[3]; validation standard 2xLLOV,106.2%
same,"Long-term stability, 1 month, -80°C Accuracy [%]",[3]; validation standard 2xLLOV,108.9%
same,"Long-term stability, 2 month, -20°C Accuracy [%]",[3]; validation standard 2xLLOV,111.0%
same,"Long-term stability, 2 month, -80°C Accuracy [%]",[3]; validation standard 2xLLOV,107.0%
same,"Long-term stability, 3 month, -20°C Accuracy [%]",[3]; validation standard 2xLLOV,96.1%
same,"Long-term stability, 3 month, -80°C Accuracy [%]",[3]; validation standard 2xLLOV,104.6%
same,"Long-term stability, 6 weeks, 4°C, without daylight Accuracy [%]",[3]; validation standard 2xLLOV,91.2%
same,"Long-term stability, 1 month, -20°C Accuracy [%]",[3]; validation standard LLOV,109.9%
same,"Long-term stability, 1 month, -80°C Accuracy [%]",[3]; validation standard LLOV,108.6%
same,"Long-term stability, 2 month, -20°C Accuracy [%]",[3]; validation standard LLOV,105.8%
same,"Long-term stability, 2 month, -80°C Accuracy [%]",[3]; validation standard LLOV,104.4%
same,"Long-term stability, 3 month, -20°C Accuracy [%]",[3]; validation standard LLOV,103.1%
same,"Long-term stability, 3 month, -80°C Accuracy [%]",[3]; validation standard LLOV,109.9%
same,"Long-term stability, 6 weeks, 4°C, without daylight Accuracy [%]",[3]; validation standard LLOV,89.3%
same,"Long-term stability, 1 month, -20°C Accuracy [%]",[3]; validation standard MOV,104.9%
same,"Long-term stability, 1 month, -80°C Accuracy [%]",[3]; validation standard MOV,108.0%
same,"Long-term stability, 2 month, -20°C Accuracy [%]",[3]; validation standard MOV,114.5%
same,"Long-term stability, 2 month, -80°C Accuracy [%]",[3]; validation standard MOV,119.3%
same,"Long-term stability, 3 month, -20°C Accuracy [%]",[3]; validation standard MOV,95.1%
same,"Long-term stability, 3 month, -80°C Accuracy [%]",[3]; validation standard MOV,99.2%
same,"Long-term stability, 6 weeks, 4°C, without daylight Accuracy [%]",[3]; validation standard MOV,106.1%
same,"Long-term stability, 1 month, -20°C Accuracy [%]",[3]; validation standard ULOV,106.5%
same,"Long-term stability, 1 month, -80°C Accuracy [%]",[3]; validation standard ULOV,105.4%
same,"Long-term stability, 2 month, -20°C Accuracy [%]",[3]; validation standard ULOV,122.3%
same,"Long-term stability, 2 month, -80°C Accuracy [%]",[3]; validation standard ULOV,122.3%
same,"Long-term stability, 3 month, -20°C Accuracy [%]",[3]; validation standard ULOV,89.3%
same,"Long-term stability, 3 month, -80°C Accuracy [%]",[3]; validation standard ULOV,100.0%
same,"Long-term stability, 6 weeks, 4°C, without daylight Accuracy [%]",[3]; validation standard ULOV,100.7%
same,"Autosampler (24h, 4°C) Accuracy [%]",[4]; validation standard 2xLLOV,101.5%
same,"Autosampler (72h, 4°C) Accuracy [%]",[4]; validation standard 2xLLOV,101.9%
same,"Autosampler (24h, 4°C) Accuracy [%]",[4]; validation standard LLOV,109.3%
same,"Autosampler (72h, 4°C) Accuracy [%]",[4]; validation standard LLOV,100.0%
same,"Autosampler (24h, 4°C) Accuracy [%]",[4]; validation standard MOV,99.4%
same,"Autosampler (72h, 4°C) Accuracy [%]",[4]; validation standard MOV,101.1%
same,"Autosampler (24h, 4°C) Accuracy [%]",[4]; validation standard ULOV,101.3%
same,"Autosampler (72h, 4°C) Accuracy [%]",[4]; validation standard ULOV,98.1%
same,cmin,[5],890 ng/mL
CC(=O)c1c(C)c2cnc(Nc3ccc(N4CCNCC4)cn3)nc2n(C2CCCC2)c1=O [Palbociclib],"Autosampler (24h, 4°C) Accuracy [%]",[4]; validation standard 2xLLOV,99.9%
same,"Autosampler (72h, 4°C) Accuracy [%]",[4]; validation standard 2xLLOV,100.1%
same,"Autosampler (24h, 4°C) Accuracy [%]",[4]; validation standard LLOV,99.4%
same,"Autosampler (72h, 4°C) Accuracy [%]",[4]; validation standard LLOV,97.9%
same,"Autosampler (24h, 4°C) Accuracy [%]",[4]; validation standard MOV,101.0%
same,"Autosampler (72h, 4°C) Accuracy [%]",[4]; validation standard MOV,96.9%
same,"Autosampler (24h, 4°C) Accuracy [%]",[4]; validation standard ULOV,103.9%
same,"Autosampler (72h, 4°C) Accuracy [%]",[4]; validation standard ULOV,102.9%
CC[C@H](Nc1ncnc2[nH]cnc12)c1nc2cccc(F)c2c(=O)n1-c1ccccc1 [Idelalisib],Freeze-Thaw Accuracy [%],[2]; validation standard 2xLLOV,98.2%
same,Freeze-Thaw Accuracy [%],[2]; validation standard LLOV,110.6%
same,Freeze-Thaw Accuracy [%],[2]; validation standard MOV,96.5%
same,Freeze-Thaw Accuracy [%],[2]; validation standard ULOV,101.5%
same,"Autosampler (24h, 4°C) Accuracy [%]",[4]; validation standard 2xLLOV,103.2%
same,"Autosampler (72h, 4°C) Accuracy [%]",[4]; validation standard 2xLLOV,98.6%
same,"Autosampler (24h, 4°C) Accuracy [%]",[4]; validation standard LLOV,109.4%
same,"Autosampler (72h, 4°C) Accuracy [%]",[4]; validation standard LLOV,109.4%
same,"Autosampler (24h, 4°C) Accuracy [%]",[4]; validation standard MOV,102.6%
same,"Autosampler (72h, 4°C) Accuracy [%]",[4]; validation standard MOV,97.1%
same,"Autosampler (24h, 4°C) Accuracy [%]",[4]; validation standard ULOV,103.9%
same,"Autosampler (72h, 4°C) Accuracy [%]",[4]; validation standard ULOV,101.4%
same,cmin,[5],318 ng/mL
COc1cc(Nc2c(C#N)cnc3cc(OCCCN4CCN(C)CC4)c(OC)cc23)c(Cl)cc1Cl [Bosutinib],Freeze-Thaw Accuracy [%],[2]; validation standard 2xLLOV,89.9%
same,Freeze-Thaw Accuracy [%],[2]; validation standard LLOV,102.2%
same,Freeze-Thaw Accuracy [%],[2]; validation standard MOV,92.6%
same,Freeze-Thaw Accuracy [%],[2]; validation standard ULOV,94.6%
same,cmin,[5],147 ng/mL
